Laboratory results: patent publication US20180243273A1, “Composition for Intravesical Administration for Treating Bladder Pain” (priority 2017, published 2018)

Test: Storage of compositions with/without nitrogen-gassing and ascorbic acid, assay and impurities
Assay type: physicochemical
Settings: for Assay / Impurities: phosphate buffer
Method: A possible beneficial effect of nitrogen-gassing during manufacturing and storage was assessed. Selected compositions were manufactured by dissolution of API via stirring for 24 h and stored after treatment with/without nitrogen at 25° C. or 6° C. for up to 28 days.
The manufactured batches consisted of phosphate buffer and vitamin E TPGS and were compared to compositions containing ascorbic acid 1%, additionally. API was used at 0.01 wt.-%, 0.02 wt.-% or 0.04 w.-%. The compositions were saturated with API, where 10 mg, 20 mg or 40 mg were dissolved in 100 g buffer containing 0.5 wt.-%, wt.-1% or 2 wt.-% vitamin E TPGS, respectively. The compositions were transferred into polystyrene bottles and stored at 25° C. or 6° C. A part of the compositions was treated with nitrogen during manufacturing and gassed with nitrogen prior to sealing (see FIG. 18). The compositions were tested for assay and purity of API after manufacturing, as well as after 7, 14 and 28 days.

[1] = vitamin E TPGS 1%, no Asc., N2 +, API 0.02%, 25° C., t = 28 d
[2] = vitamin E TPGS 1%, no Asc., N2 +, API 0.02%, t = 0
[3] = vitamin E TPGS 1%, no Asc., N2 −, API 0.02%, 6° C., t = 7 d
[4] = vitamin E TPGS 1%, no Asc., N2 −, API 0.02%, 6° C., t = 14 d
[5] = vitamin E TPGS 1%, no Asc., N2 −, API 0.02%, 6° C., t = 28 d
[6] = vitamin E TPGS 1%, no Asc., N2 −, API 0.02%, 25° C., t = 7 d
[7] = vitamin E TPGS 1%, no Asc., N2 −, API 0.02%, 25° C., t = 14 d
[8] = vitamin E TPGS 1%, no Asc., N2 −, API 0.02%, 25° C., t = 28 d
[9] = vitamin E TPGS 1%, no Asc., N2 −, API 0.02%, t = 0
[10] = vitamin E TPGS 2%, Asc. 1%, N2 +, API 0.04%, 6° C., t = 7 d
[11] = vitamin E TPGS 2%, Asc. 1%, N2 +, API 0.04%, 6° C., t = 14 d
[12] = vitamin E TPGS 2%, Asc. 1%, N2 +, API 0.04%, 6° C., t = 28 d
[13] = vitamin E TPGS 2%, Asc. 1%, N2 +, API 0.04%, 25° C., t = 7 d
[14] = vitamin E TPGS 2%, Asc. 1%, N2 +, API 0.04%, 25° C., t = 14 d
[15] = vitamin E TPGS 2%, Asc. 1%, N2 +, API 0.04%, 25° C., t = 28 d
[16] = vitamin E TPGS 2%, Asc. 1%, N2 +, API 0.04%, t = 0
[17] = vitamin E TPGS 2%, Asc. 1%, N2 −, API 0.04%, 6° C., t = 7 d
[18] = vitamin E TPGS 2%, Asc. 1%, N2 −, API 0.04%, 6° C., t = 14 d
[19] = vitamin E TPGS 2%, Asc. 1%, N2 −, API 0.04%, 6° C., t = 28 d
[20] = vitamin E TPGS 2%, Asc. 1%, N2 −, API 0.04%, 25° C., t = 7 d
[21] = vitamin E TPGS 2%, Asc. 1%, N2 −, API 0.04%, 25° C., t = 14 d
[22] = vitamin E TPGS 2%, Asc. 1%, N2 −, API 0.04%, 25° C., t = 28 d
[23] = vitamin E TPGS 2%, Asc. 1%, N2 −, API 0.04%, t = 0
[24] = vitamin E TPGS 2%, no Asc., N2 +, API 0.04%, 6° C., t = 7 d
[25] = vitamin E TPGS 2%, no Asc., N2 +, API 0.04%, 6° C., t = 14 d
[26] = vitamin E TPGS 2%, no Asc., N2 +, API 0.04%, 6° C., t = 28 d
[27] = vitamin E TPGS 2%, no Asc., N2 +, API 0.04%, 25° C., t = 7 d
[28] = vitamin E TPGS 2%, no Asc., N2 +, API 0.04%, 25° C., t = 14 d
[29] = vitamin E TPGS 2%, no Asc., N2 +, API 0.04%, 25° C., t = 28 d
[30] = vitamin E TPGS 2%, no Asc., N2 +, API 0.04%, t = 0
[31] = vitamin E TPGS 2%, no Asc., N2 −, API 0.04%, 6° C., t = 7 d
[32] = vitamin E TPGS 2%, no Asc., N2 −, API 0.04%, 6° C., t = 14 d
[33] = vitamin E TPGS 2%, no Asc., N2 −, API 0.04%, 6° C., t = 28 d
[34] = vitamin E TPGS 2%, no Asc., N2 −, API 0.04%, 25° C., t = 7 d
[35] = vitamin E TPGS 2%, no Asc., N2 −, API 0.04%, 25° C., t = 14 d
[36] = vitamin E TPGS 2%, no Asc., N2 −, API 0.04%, 25° C., t = 28 d
[37] = vitamin E TPGS 2%, no Asc., N2 −, API 0.04%, t = 0

## CN(C)[C@]1(c2cccc(F)c2)CC[C@]2(CC1)c1[nH]c3ccccc3c1CCN2C(=O)/C=C/c1ccccc1 [API, cis-(E)-4-(3-fluorophenyl)-2′,3′,4′,9′-tetrahydro-N,N-dimethyl-2′-(1-oxo-3-phenyl-2-propenyl)-spiro[cyclohexane-1,1′[1H]-pyrido[3,4-b]indol]-4-amine]
[1]
  Assay: 93.95 µg/mL
  Impurities: 0.85 % (a/a)
[2]
  Assay: 93.15 µg/mL
  Impurities: 0.63 % (a/a)
[3]
  Assay: 92.96 µg/mL
  Impurities: 0.66 % (a/a)
[4]
  Assay: 93.12 µg/mL
  Impurities: 0.82 % (a/a)
[5]
  Assay: 93.21 µg/mL
  Impurities: 1.15 % (a/a)
[6]
  Assay: 93.12 µg/mL
  Impurities: 0.74 % (a/a)
[7]
  Assay: 93.69 µg/mL
  Impurities: 1.01 % (a/a)
[8]
  Assay: 93.67 µg/mL
  Impurities: 0.80 % (a/a)
[9]
  Assay: 92.32 µg/mL
  Impurities: 0.63 % (a/a)
[10]
  Assay: 218.73 µg/mL
  Impurities: 0.72 % (a/a)
[11]
  Assay: 218.92 µg/mL
  Impurities: 0.95 % (a/a)
[12]
  Assay: 219.23 µg/mL
  Impurities: 0.68 % (a/a)
[13]
  Assay: 209.88 µg/mL
  Impurities: 1.22 % (a/a)
[14]
  Assay: 210.66 µg/mL
  Impurities: 1.08 % (a/a)
[15]
  Assay: 190.68 µg/mL
  Impurities: 1.54 % (a/a)
[16]
  Assay: 217.91 µg/mL
  Impurities: 0.62 % (a/a)
[17]
  Assay: 222.15 µg/mL
  Impurities: 0.75 % (a/a)
[18]
  Assay: 226.12 µg/mL
  Impurities: 0.85 % (a/a)
[19]
  Assay: 225.09 µg/mL
  Impurities: 0.79 % (a/a)
[20]
  Assay: 222.30 µg/mL
  Impurities: 0.92 % (a/a)
[21]
  Assay: 213.85 µg/mL
  Impurities: 1.58 % (a/a)
[22]
  Assay: 197.06 µg/mL
  Impurities: 1.67 % (a/a)
[23]
  Assay: 218.96 µg/mL
  Impurities: 0.63 % (a/a)
[24]
  Assay: 216.81 µg/mL
  Impurities: 0.53 % (a/a)
[25]
  Assay: 216.54 µg/mL
  Impurities: 0.71 % (a/a)
[26]
  Assay: 216.93 µg/mL
  Impurities: 0.46 % (a/a)
[27]
  Assay: 215.81 µg/mL
  Impurities: 0.57 % (a/a)
[28]
  Assay: 215.34 µg/mL
  Impurities: 0.82 % (a/a)
[29]
  Assay: 217.45 µg/mL
  Impurities: 0.72 % (a/a)
[30]
  Assay: 214.85 µg/mL
  Impurities: 0.58 % (a/a)
[31]
  Assay: 214.61 µg/mL
  Impurities: 0.37 % (a/a)
[32]
  Assay: 214.30 µg/mL
  Impurities: 0.72 % (a/a)
[33]
  Assay: 214.68 µg/mL
  Impurities: 0.49 % (a/a)
[34]
  Assay: 214.19 µg/mL
  Impurities: 0.54 % (a/a)
[35]
  Assay: 213.44 µg/mL
  Impurities: 0.80 % (a/a)
[36]
  Assay: 215.45 µg/mL
  Impurities: 0.67 % (a/a)
[37]
  Assay: 212.92 µg/mL
  Impurities: 0.60 % (a/a)
Storage temperature of 6° C., all compositions, up to 28 days
  sum of all impurities: below 1 % (a/a)
